# Residues, ends and D or L forms follow the SMILES beside them.
# Assays:
# [1] = target: T1, TSH receptor on human thyroid membranes (Homo sapiens, UniProt P16473); assay: Human thyroid membrane TSH radio-receptor assay (inhibition of 125I-bTSH binding); conditions: for EC50: concentration inhibiting 125I-bTSH binding to human thyroid membrane by 50%, mean ± se of at least 3 assays; for Inhibition of TSH binding to human thyroid membrane (in words): human thyroid membrane RRA
# T1 construct: Crude membrane preparations were prepared from the frozen tissue; from tissue; host or cells: human thyroid tissue (Graves' disease patients), crude 2000 x g membrane fraction
# Description: Thyroid tissue from patients with Graves' disease was obtained at surgery and promptly frozen and maintained at -70° C. Crude membrane preparations were prepared from the frozen tissue as previously described, Takahashi et al., J. Clin. Endocrinol. Metab., 47:870-876 (1978), the disclosure of which is incorporated by reference herein. Briefly, the tissue was homogenized with a Polytron homogenizer (Brinkmann Instruments,Westbury, N.Y.), and the 2000×g fraction was collected by centrifugation, washed, and resuspended in 40 mM Tris, 200 mM sucrose, pH 7.4. Membrane preparations were maintained at -70° C. until assay.
# (§1) Highly purified bTSH (30 U/mg, supplied by Dr. J. G. Pierce, formerly of UCLA) was radio-iodinated (Na^125 I, Amersham, Chicago) by a lactoperoxidase technique to a specific activity averaging 40-50 μCi/μg as previously described, Takahashi et al., supra, then purified by Sephadex G-100 chromatography.
# (§2) The TSH radio-receptor assay (RRA) utilized for the studies has been well described previously; see Takahashi et al., supra and Morris et al., Endocrinology, 123:456-462 (1988), the disclosure of which is incorporated by reference herein. Briefly, for either human or porcine thyroid RRA, the incubation mixture consisted of the following: 10 mg equivalents of wet weight (mg eq) crude thyroid membrane preparation, 0.124 ng [^125 I]iodo-bTSH (approximately 20,000 cpm), 0.2% Triton X-100, and the noted amounts of synthetic peptides or unlabeled bTSH in 0.5 ml 40 mM Tris, 0.1% BSA, pH 7.4. Bound label was separated from free after 2 hrs incubation at 25° C. by addition of a 1 ml 30% polyethylene glycol (PEG, Baker, Phillipsburg, N.J.) 6000 in 1M NaCl and centrifugation. The resulting pellet was counted in a gamma counter. Non-specific binding was determined by addition of a 100 mU/ml crude bTSH (Sigma, St. Louis).
# [2] = target: T2, porcine TSH receptor (porcine thyroid membranes) (Sus scrofa, UniProt Q8SPP9); assay: Porcine thyroid membrane TSH radio-receptor assay (inhibition of 125I-bTSH binding); conditions: concentration inhibiting 125I-bTSH binding to porcine thyroid membrane by 50%; mean ± se of at least 3 assays
# T2 construct: Frozen porcine thyroid glands were purchased; tissue Pel-Freez Biologicals; host or cells: porcine thyroid glands, crude membrane preparation
# From the text: (§3) Frozen porcine thyroid glands were purchased (Pel-Freez Biologicals, Rogers, Ak.) and prepared using the same procedures as for the human glands.
# as §1, §2
# [3] = target: T3, FRTL5 cells (Rattus norvegicus, UniProt P21463); assay: TSab bioassay, inhibition of TSab-stimulated cAMP generation in FRTL5 cells; format: cell-based; conditions: for Serum samples in which TSab-stimulated cAMP was significantly inhibited (p<0.05) / samples tested: peptide 150 μg/ml; for Inhibition of TSab-stimulated cAMP generation (in words): peptide 50 and 150 μg/ml
# Description: (§4) FRTL5 cells were cultured in Hams F-12 medium supplemented with 5% calf serum and a preparation containing 6 hormones (6H), including 10 mU/ml bTSH (Sigma, St. Louis, Mo.), as previously described. Ambesi-Impiombato et al., Proc. Natl. Acad. Sci. U.S.A., 77:3455 (1980), the disclosure of which is incorporated by reference herein. The cells were enzymatically removed from flasks and plated in 24 well plates containing 6H at a density of 150,000 cells per well. After 4 days, the cells were washed and the media replaced with media containing insulin only (1H). All subsequent assays were performed on cells deprived of TSH for 5-7 days.
# Serum samples from 15 patients with elevated TSab levels were selected from the clinical chemistry laboratory. The TSab values, expressed as an index, [formula] 63:707 (1988)]ranged from 10-20 with an average of 13.8±3.3. Normal serum has an index of less than 1.3.
# The bioassay described by Kasagi et al., supra, with modifications as previously noted above, was used. The immunoglobulins were precipitated from 2 ml of TSab-containing serum with 6 ml of polyethylene glycol 6,000 (Baker; Phillipsburg, N.J.), centrifuged at 3,000×g for 20 minutes, and resuspended in 4 ml of NaCl-free HBSS with 0.5 mM IBMX and 0.5% BSA. The plated cells were washed with NaCl-free HBSS and the crude immunoglobulin extract, mixed with various concentrations of β-subunit peptides, was added in duplicate to the wells (total volume 200 μl/well). The cells were incubated for 2 hours at 37° C. and 5% CO2. The samples were then removed from the cells and a portion diluted 1:50 in NaOAc buffer, pH 6.2. A 25 μl aliquot of this was then used in a cAMP RIA as described above. The basal cAMP levels were determined for each plate of cells in the absence of immunoglobulin extract and β-peptides. A maximal cAMP level was attained by stimulating the cells with the immunoglobulin extract only. The percent increase in cAMP levels above basal was calculated as: [formula] as previously described (see Morris et al., supra). The percent inhibition of cAMP production by the β-subunit peptides was calculated as described above for TSH-stimulated cells, substituting pmol cAMP crude immunoglobulin for pmol cAMP TSH.
# Inhibition of TSab activity was tested by comparing the replicates of cAMP levels generated in the presence of peptide to those generated by TSab alone using Student's T test for unpaired samples. Mean inhibition by the various doses of synthetic peptide for the patient group was tested by comparison with maximum cAMP response within each patient sample using the T test for paired samples.
# [4] = target: T3, FRTL5 cells; assay: TSH bioassay, inhibition of TSH-mediated cAMP generation in FRTL5 cells; format: cell-based
# Description: as §4
# The TSH bioassay was a modification of assays previously described by Bidey et al., J. Endocrinol., 101:269 (1984); and Kasagi et al., ACTA Endocrinol., 115:30 (1987). FRTL5 cells were washed with NaCl-free Hanks balanced salt solution (NaCl-free HBSS) pH 7.3. The cells were then exposed to purified bovine TSH (bTSH) (a gift from Dr. John Pierce, formerly of UCLA) in the presence and absence of specific β-subunit peptides in NaCl-free HBSS with 0.5 mM isobutylmethylxanthine (IBMX, Sigma, St. Louis, Mo.) and 0.5% BSA (Sigma). The total volume in each well was 275 μl. In stimulation assays, only the β-subunit peptides were added. For inhibition assays, two different concentrations of the β-subunit peptides were added to culture wells in duplicate with 200 mU/I of purified bTSH. The plates were incubated for 2 hours at 37° C. in 5% CO2. The media was removed from the cells and a portion diluted 1:50 in 0.05M NaOAc buffer, pH 6.2. A 25 μl aliquot of this was used in a cAMP RIA. Basal cAMP levels were determined in the absence of the TSH or β-subunit peptides. In inhibition assays, the percent inhibition was calculated as noted below (see Morris et al., (1988) supra): [formula]
# [5] = target: T4, EGF thyroid membrane receptor (Sus scrofa, UniProt A0A5G2R2I8); assay: Porcine thyroid membrane epidermal growth factor radio-receptor assay; format: binding; conditions: [125I]iodo-EGF, read-out: EC50 of unlabeled EGF in EGF RRA
# T4 construct: The incubation mixture consisted of 40 mg eq crude thyroid membrane; tissue Pel-Freez Biologicals; host or cells: porcine thyroid glands, crude membrane preparation
# Description: as §3
# The EGF RRA was a modification of that described by Humphries et al., J. Endocrinol., 102:857-61 (1984), the disclosure of which is incorporated by reference herein. Purified murine EGF (a gift of Dr. N. S. Jiang, Mayo Clinic) was radio-iodinated by a chloramine-T technique to a specific activity of 65 μCi/μg. The incubation mixture consisted of 40 mg eq crude thyroid membrane, 0.5 ng [^125 I]iodo-EGF, and the indicated concentrations of unlabeled EGF or synthetic peptides in 0.5 ml phosphate buffered saline plus 5 mM MgCl2, 1 mM CaCl2, 0.1% BSA, pH 7.4. Non-specific binding was determined by addition of 0.5 μg unlabeled EGF. Bound was separated from free by precipitation with PEG and centrifugation as above.
# T1 sequence (P16473 21-764): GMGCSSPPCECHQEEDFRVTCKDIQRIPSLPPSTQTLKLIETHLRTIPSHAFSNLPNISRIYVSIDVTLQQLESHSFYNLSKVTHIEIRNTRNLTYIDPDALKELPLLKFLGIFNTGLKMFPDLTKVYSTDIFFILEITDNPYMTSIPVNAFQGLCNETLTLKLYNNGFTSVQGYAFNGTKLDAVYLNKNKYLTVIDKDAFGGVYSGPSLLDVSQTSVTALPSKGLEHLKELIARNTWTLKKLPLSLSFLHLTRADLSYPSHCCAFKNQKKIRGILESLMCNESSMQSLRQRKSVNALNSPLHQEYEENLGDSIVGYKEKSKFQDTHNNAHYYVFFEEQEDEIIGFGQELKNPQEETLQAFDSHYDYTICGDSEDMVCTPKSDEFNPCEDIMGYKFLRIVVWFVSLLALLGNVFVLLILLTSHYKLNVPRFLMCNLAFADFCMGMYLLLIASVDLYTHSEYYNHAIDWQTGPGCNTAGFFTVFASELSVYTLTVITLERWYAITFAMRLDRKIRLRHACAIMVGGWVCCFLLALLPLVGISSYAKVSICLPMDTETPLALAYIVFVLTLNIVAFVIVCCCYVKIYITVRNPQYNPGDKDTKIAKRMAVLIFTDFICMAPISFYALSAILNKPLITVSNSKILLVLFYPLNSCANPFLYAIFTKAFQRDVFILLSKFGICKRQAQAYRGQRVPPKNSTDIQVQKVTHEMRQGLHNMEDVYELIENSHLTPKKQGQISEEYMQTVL
# T3 sequence (P21463 22-764): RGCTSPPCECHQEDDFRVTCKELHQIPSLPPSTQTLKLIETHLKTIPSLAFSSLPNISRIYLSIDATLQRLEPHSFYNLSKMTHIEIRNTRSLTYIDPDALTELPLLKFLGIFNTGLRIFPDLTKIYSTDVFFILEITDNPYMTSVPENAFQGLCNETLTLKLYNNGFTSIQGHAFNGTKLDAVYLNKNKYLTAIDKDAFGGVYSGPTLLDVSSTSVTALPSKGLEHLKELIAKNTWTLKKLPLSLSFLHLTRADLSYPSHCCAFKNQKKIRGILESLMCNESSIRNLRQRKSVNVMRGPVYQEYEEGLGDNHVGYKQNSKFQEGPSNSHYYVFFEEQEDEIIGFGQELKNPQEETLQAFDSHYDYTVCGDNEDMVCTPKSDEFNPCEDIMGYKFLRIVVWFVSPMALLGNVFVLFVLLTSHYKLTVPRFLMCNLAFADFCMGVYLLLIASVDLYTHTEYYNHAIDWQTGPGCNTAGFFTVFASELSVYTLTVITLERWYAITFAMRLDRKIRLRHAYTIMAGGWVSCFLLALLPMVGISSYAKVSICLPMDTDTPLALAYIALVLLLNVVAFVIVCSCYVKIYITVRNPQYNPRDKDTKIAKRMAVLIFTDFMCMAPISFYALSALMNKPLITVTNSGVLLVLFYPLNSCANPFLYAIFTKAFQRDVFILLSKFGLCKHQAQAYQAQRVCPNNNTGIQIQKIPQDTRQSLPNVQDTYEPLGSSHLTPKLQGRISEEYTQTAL
# T2 sequence (Q8SPP9 22-764): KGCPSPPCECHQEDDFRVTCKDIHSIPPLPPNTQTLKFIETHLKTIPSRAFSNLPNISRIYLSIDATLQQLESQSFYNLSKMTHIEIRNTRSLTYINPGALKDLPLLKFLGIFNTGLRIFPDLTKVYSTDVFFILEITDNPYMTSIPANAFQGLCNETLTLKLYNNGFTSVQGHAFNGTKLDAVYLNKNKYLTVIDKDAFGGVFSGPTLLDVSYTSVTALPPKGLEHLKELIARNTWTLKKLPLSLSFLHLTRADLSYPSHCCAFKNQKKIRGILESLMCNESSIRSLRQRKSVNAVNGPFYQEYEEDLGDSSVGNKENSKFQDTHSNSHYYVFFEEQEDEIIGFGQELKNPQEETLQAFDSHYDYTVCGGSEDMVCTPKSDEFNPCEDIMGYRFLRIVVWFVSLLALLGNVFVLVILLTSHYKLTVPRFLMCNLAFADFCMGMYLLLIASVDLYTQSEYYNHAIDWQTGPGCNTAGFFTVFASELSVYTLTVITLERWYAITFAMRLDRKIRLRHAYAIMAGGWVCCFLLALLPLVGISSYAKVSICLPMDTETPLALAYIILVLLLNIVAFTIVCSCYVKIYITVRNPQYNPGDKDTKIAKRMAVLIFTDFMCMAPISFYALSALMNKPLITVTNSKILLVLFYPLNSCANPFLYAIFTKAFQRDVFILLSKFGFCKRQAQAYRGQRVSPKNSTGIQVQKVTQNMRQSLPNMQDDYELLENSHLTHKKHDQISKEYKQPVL
# T4 sequence (A0A5G2R2I8 22-1210): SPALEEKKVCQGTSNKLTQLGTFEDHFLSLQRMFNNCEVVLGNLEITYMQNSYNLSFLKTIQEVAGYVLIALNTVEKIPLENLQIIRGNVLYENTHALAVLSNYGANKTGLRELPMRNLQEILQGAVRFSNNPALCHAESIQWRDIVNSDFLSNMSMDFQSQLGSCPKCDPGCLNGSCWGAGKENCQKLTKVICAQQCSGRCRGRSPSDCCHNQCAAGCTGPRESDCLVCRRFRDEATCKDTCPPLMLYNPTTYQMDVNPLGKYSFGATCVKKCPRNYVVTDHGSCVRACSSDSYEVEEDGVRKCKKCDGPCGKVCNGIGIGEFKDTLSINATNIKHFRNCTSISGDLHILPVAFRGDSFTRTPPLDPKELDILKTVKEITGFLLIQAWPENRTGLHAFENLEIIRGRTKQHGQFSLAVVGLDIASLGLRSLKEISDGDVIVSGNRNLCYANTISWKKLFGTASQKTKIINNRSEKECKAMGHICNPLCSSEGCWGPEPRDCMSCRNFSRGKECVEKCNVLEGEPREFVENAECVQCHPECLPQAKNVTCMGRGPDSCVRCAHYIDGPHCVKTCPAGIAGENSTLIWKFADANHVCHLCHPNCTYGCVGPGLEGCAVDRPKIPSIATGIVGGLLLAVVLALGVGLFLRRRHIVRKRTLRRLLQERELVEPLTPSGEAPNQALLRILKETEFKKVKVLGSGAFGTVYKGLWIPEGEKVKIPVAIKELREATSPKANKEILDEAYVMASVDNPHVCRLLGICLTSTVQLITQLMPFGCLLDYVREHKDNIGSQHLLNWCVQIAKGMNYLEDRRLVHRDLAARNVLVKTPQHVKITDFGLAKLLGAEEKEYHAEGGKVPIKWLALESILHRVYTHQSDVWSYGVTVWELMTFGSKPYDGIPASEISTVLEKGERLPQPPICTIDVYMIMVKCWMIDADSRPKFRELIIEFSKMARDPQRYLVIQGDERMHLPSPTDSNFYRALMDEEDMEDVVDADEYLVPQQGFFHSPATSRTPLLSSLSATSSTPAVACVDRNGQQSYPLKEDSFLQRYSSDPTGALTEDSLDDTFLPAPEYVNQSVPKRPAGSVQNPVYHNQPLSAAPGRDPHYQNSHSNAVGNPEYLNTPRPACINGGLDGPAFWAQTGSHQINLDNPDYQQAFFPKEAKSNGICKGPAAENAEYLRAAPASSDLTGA
EC50 [1] [µM],EC50 [2] [µM],Serum samples in which TSab-stimulated cAMP was significantly inhibited (p<0.05) / samples tested [3],Inhibition of TSab-stimulated cAMP generation (in words) [3],Inhibition of TSab-stimulated cAMP generation (in words) ([3]; listed as (I)),Inhibition of TSab-stimulated cAMP generation (in words) ([3]; listed as (II)),Inhibition of TSab-stimulated cAMP generation (in words) ([3]; listed as (III)),EC50 [5] [µM],Molecule,Inhibition of TSH-mediated cAMP generation (in words) [4],Inhibition of TSH binding to human thyroid membrane (in words) [1]
331 ± 45,1160 ± 431,12/12,significantly inhibited cAMP production,inhibitory effect,,,,"CC[C@H](C)[C@H](NC(=O)[C@H](Cc1c[nH]cn1)NC(=O)[C@H](CCSC)NC(=O)[C@@H](NC(=O)[C@H](Cc1ccc(O)cc1)NC(=O)[C@H](CCC(=O)O)NC(=O)[C@@H](NC(=O)[C@@H]1CCCN1C(=O)[C@@H](NC(=O)[C@H](CS)NC(=O)[C@@H](N)Cc1ccccc1)[C@@H](C)CC)[C@@H](C)O)[C@@H](C)O)C(=O)N[C@@H](CCC(=O)O)C(=O)N[C@@H](CCCNC(=N)N)C(=O)N[C@@H](CCCNC(=N)N)C(=O)N[C@@H](CCC(=O)O)C(N)=O [β1-15, Phe-Cys-Ile-Pro-Thr-Glu-Tyr-Thr-Met-His-Ile-Glu-Arg-Arg-Glu] (H-FCIPTEYTMHIERRE-NH2; N-terminus assumed)",effectively inhibit TSH-mediated cAMP generation,
,,10/11,significantly inhibited cAMP production,,inhibitory effect,,,"CC(C)C[C@H](N)C(=O)N[C@@H](CO)C(=O)N[C@@H](CS)C(=O)N[C@@H](CCCCN)C(=O)N[C@@H](CS)C(=O)NCC(=O)N[C@@H](CCCCN)C(=O)N[C@@H](CS)C(=O)N[C@@H](CC(N)=O)C(=O)N[C@H](C(=O)N[C@@H](CC(=O)O)C(=O)N[C@@H](Cc1ccc(O)cc1)C(=O)N[C@@H](CO)C(=O)N[C@@H](CC(=O)O)C(=O)N[C@@H](CS)C(N)=O)[C@@H](C)O [β81-95, Leu-Ser-Cys-Lys-Cys-Gly-Lys-Cys-Asn-Thr-Asp-Tyr-Ser-Asp-Cys] (H-LSCKCGKCNTDYSDC-NH2; N-terminus assumed)",effectively inhibit TSH-mediated cAMP generation,inhibit binding of TSH to human thyroid membrane
80 ± 9,106 ± 8.7,10/11,significantly inhibited cAMP production,,,inhibitory effect,,"C[C@@H](O)[C@H](NC(=O)[C@H](CS)NC(=O)[C@H](Cc1ccc(O)cc1)NC(=O)[C@H](CC(N)=O)NC(=O)[C@@H](NC(=O)[C@@H](N)CCCCN)[C@@H](C)O)C(=O)N[C@@H](CCCCN)C(=O)N1CCC[C@H]1C(=O)N[C@@H](CCC(N)=O)C(=O)N[C@@H](CCCCN)C(=O)N[C@@H](CO)C(=O)N[C@@H](Cc1ccc(O)cc1)C(=O)O [β101-112, Lys-Thr-Asn-Tyr-Cys-Thr-Lys-Pro-Gln-Lys-Ser-Tyr] (H-KTNYCTKPQKSY-OH)",effectively inhibit TSH-mediated cAMP generation,inhibit binding of TSH to human thyroid membrane
,,,,,,,0.000252,"EGF: purified murine epidermal growth factor, unlabeled",,
